Source: the supplement of paper PMC10307832

Compound: COC1=CC=C(C=C1)CN2C=CC3=C2C=C(C=C3)C(=O)NO + C[C@]1(O)C[C@@H](c2nc(-c3ccc4ccc(-c5ccccc5)nc4c3)c3c(N)nccn32)C1 [Linsitinib] (partner 1 µM)
Assay: relative viability (nuclei count vs DMSO), 5 days (fraction); higher = more cells survive
Conditions: first compound 8 µM
In short: (§1)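 Cells from lung cancer lines were seeded into 1536-well plates and, one day later, dosed by pin tool. Treatments were either a single drug or a fixed dose of an anchor drug with five library-drug doses (not always all listed) in √10 steps. After 5 days, nuclei were stained in a one-step fixation (final 0.05% Triton X-100, 1% formaldehyde, 1 ug/ml Hoechst) and counted on 4× images, and relative viability is the treated-to-vehicle nuclei ratio, as the median of duplicate plates.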

| Cell Line | relative viability |
| --- | --- |
| NCI-H2087 | 0.921 |

Compound: C[C@]1(c2nc3c(C(N)=O)cccc3[nH]2)CCCN1 [Veliparib] + COc1cccc2cc(-c3nc([C@H]4CC[C@H](C(=O)O)CC4)n4ncnc(N)c34)[nH]c12 [OSI-027] (partner 0.5 µM)
Assay: as above
Conditions: first compound 0.02 µM
In short: as §1

| Cell Line | relative viability |
| --- | --- |
| NCI-H1651 | 0.699 |
| COR-L23 | 0.707 |
| HCC-827 | 0.763 |
| RERF-LC-KJ | 0.39 |
| NCI-H1563 | 0.672 |
| NCI-H3122 | 0.829 |
| BEN | 0.288 |
| UMC-11 | 0.508 |
| LCLC-97TM1 | 0.51 |
| NCI-H727 | 0.527 |
| NCI-H838 | 0.419 |
| 201T | 0.659 |
| NCI-H2228 | 0.529 |
| LOU-NH91 | 0.716 |
| NCI-H1666 | 0.938 |
| NCI-H650 | 0.436 |
| NCI-H1993 | 0.592 |
| HCC-44 | 0.556 |
| NCI-H647 | 0.662 |
| NCI-H2126 | 0.647 |
| NCI-H1755 | 0.767 |
| PC-3 [JPC-3] | 0.773 |
| NCI-H1792 | 0.738 |
| NCI-H2087 | 0.303 |

Same assay, conditions: first compound 0.06325 µM

| Cell Line | relative viability |
| --- | --- |
| LC-2-ad | 0.758 |
| NCI-H1651 | 0.626 |
| COR-L23 | 0.738 |
| HCC-827 | 0.843 |
| RERF-LC-KJ | 0.455 |
| NCI-H1563 | 0.741 |
| NCI-H3122 | 0.923 |
| BEN | 0.315 |
| UMC-11 | 0.471 |
| LCLC-97TM1 | 0.5 |
| NCI-H2085 | 0.721 |
| A-427 | 0.414 |
| NCI-H727 | 0.439 |
| NCI-H838 | 0.328 |
| 201T | 0.58 |
| NCI-H2228 | 0.569 |
| LOU-NH91 | 0.669 |
| NCI-H1666 | 0.791 |
| NCI-H650 | 0.415 |
| NCI-H1993 | 0.531 |
| NCI-H647 | 0.479 |
| NCI-H2126 | 0.608 |
| NCI-H1755 | 0.713 |
| PC-3 [JPC-3] | 0.74 |
| NCI-H1792 | 0.708 |
| NCI-H2087 | 0.475 |

Same assay, conditions: first compound 0.2 µM

| Cell Line | relative viability |
| --- | --- |
| LC-2-ad | 0.781 |
| NCI-H1651 | 0.619 |
| COR-L23 | 0.841 |
| HCC-827 | 0.722 |
| RERF-LC-KJ | 0.634 |
| NCI-H1563 | 0.799 |
| NCI-H3122 | 0.935 |
| BEN | 0.294 |
| UMC-11 | 0.472 |
| LCLC-97TM1 | 0.505 |
| NCI-H2085 | 0.629 |
| A-427 | 0.485 |
| NCI-H727 | 0.648 |
| NCI-H838 | 0.409 |
| 201T | 0.713 |
| NCI-H2228 | 0.56 |
| LOU-NH91 | 0.688 |
| NCI-H1666 | 0.763 |
| NCI-H650 | 0.543 |
| NCI-H1993 | 0.562 |
| HCC-44 | 0.478 |
| NCI-H647 | 0.618 |
| NCI-H2126 | 0.747 |
| NCI-H1755 | 0.683 |
| PC-3 [JPC-3] | 0.813 |
| NCI-H1792 | 0.73 |
| NCI-H2087 | 0.504 |

Same assay, conditions: first compound 0.6325 µM

| Cell Line | relative viability |
| --- | --- |
| LC-2-ad | 0.792 |
| NCI-H1651 | 0.659 |
| COR-L23 | 0.57 |
| HCC-827 | 0.552 |
| RERF-LC-KJ | 0.538 |
| NCI-H1563 | 0.751 |
| NCI-H3122 | 0.96 |
| BEN | 0.296 |
| UMC-11 | 0.469 |
| LCLC-97TM1 | 0.433 |
| NCI-H2085 | 0.713 |
| A-427 | 0.456 |
| NCI-H727 | 0.494 |
| NCI-H838 | 0.296 |
| 201T | 0.759 |
| NCI-H2228 | 0.486 |
| LOU-NH91 | 0.726 |
| NCI-H1666 | 0.806 |
| NCI-H650 | 0.48 |
| NCI-H1993 | 0.585 |
| HCC-44 | 0.682 |
| NCI-H647 | 0.605 |
| NCI-H2126 | 0.749 |
| NCI-H1755 | 0.586 |
| PC-3 [JPC-3] | 0.755 |
| NCI-H1792 | 0.707 |
| NCI-H2087 | 0.456 |

Same assay, conditions: first compound 2 µM

| Cell Line | relative viability |
| --- | --- |
| LC-2-ad | 0.87 |
| NCI-H1651 | 0.697 |
| COR-L23 | 0.77 |
| HCC-827 | 0.786 |
| RERF-LC-KJ | 0.57 |
| NCI-H1563 | 0.77 |
| NCI-H3122 | 0.991 |
| BEN | 0.3 |
| UMC-11 | 0.415 |
| LCLC-97TM1 | 0.587 |
| NCI-H2085 | 0.675 |
| A-427 | 0.463 |
| NCI-H727 | 0.537 |
| NCI-H838 | 0.372 |
| 201T | 0.722 |
| NCI-H2228 | 0.551 |
| LOU-NH91 | 0.74 |
| NCI-H1666 | 0.848 |
| NCI-H650 | 0.55 |
| NCI-H1993 | 0.51 |
| HCC-44 | 0.479 |
| NCI-H647 | 0.648 |
| NCI-H2126 | 0.679 |
| NCI-H1755 | 0.645 |
| PC-3 [JPC-3] | 0.755 |
| NCI-H1792 | 0.664 |
| NCI-H2087 | 0.539 |
